“Also recorded” adds a separate entry of the source. Like-named read-outs stand apart in the source and are kept apart here. Where a SMILES comes first, the peptide text is derived from it. Bridges are numbered along the chain shown (N, C = ends).
Key:
TC-1 tumor = test: TC-1 subcutaneous tumor model in C57BL/6 mice; type: in vivo; settings: 80 μM; for survival: intratumoral route
Procedure: Six-to-eight weeks-old, C57BL/6 female mice of 22 g of weight were supplied by the National Center for Laboratory Animal Production (CENPALAB, Havana, Cuba) and housed under pathogen-free conditions at the Bioterium of the Center for Genetic Engineering and Biotechnology (CIGB). Experiments were carried out in agreement with regulations for proper handling and care of laboratory animals. Tumor volume was measured on each case (estimated by the formula: volume=a^2×(b/2), where a is the width and b is the length of the tumor) and animal survival was evaluated.
Survival was compared between groups by the Logrank test. The statistic parameters were obtained with the aid of the GraphPad Prism 4.0 software (GraphPad Software, San Diego, Calif., USA).
C57BL/6 mice were injected in the right flank by subcutaneous route (s.c.) with 50 000 TC-1 cells. When tumors were detectable, mice were randomized into treatment groups to evaluate the treatment with the peptides subject of study, to evaluate them by different administration routes. Tumor-bearing animals received 6 administrations in alternate days, with 80 μM of the subject peptide, solely received the vehicle as control. Five mice were used for each group. Animals were housed under pathogen-free conditions, and procedures were conducted in agreement with good practices for laboratory animal handling and care.

[1] = test system: human colon cancer Ls174T cell line implanted in NIH athymic mice; test: Ls174T colon cancer tumor model in athymic mice; type: in vivo; settings: FIG. 19B
Procedure: The Ls174T colon cancer tumor model in athymic mice was used to evaluate the potential effect of the linear Gly255-Ser274 segment (peptide N06P87), compared to the CIGB370r polypeptide, on human tumor models. Human tumor cells were administered by subcutaneous route, and the molecules of interest or the vehicle were administered by intratumor route (100 μL). After 13 days, when tumors were implanted and palpable, administration schedules started for the molecules of interest (FIG. 8A). The peptide N06P87 was administered in down-scaled doses: two administrations of 600 μM each every 48 h, followed by 4 administrations of 330 μM each every 48 h, and lastly 4 administrations of 90 μM each every 72 h. The CIGB370r peptide was administered weekly for 4 weeks.
The effects of the linear segment Gly255-Ser274 (peptide N06P87) and two other model cyclic peptides of the present invention were compared to the effect of the CIGB370r polypeptide in the Ls174T human colon cancer model in athymic NIH mice, with the dose and schedule shown in FIG. 19. After 13 days, once the tumors were implanted and palpable, biomolecules began to be administered (FIG. 19 A). The peptides were administered in down-scaled doses: 2 administrations of 600 μM every 48 h, followed by 4 administrations of 330 μM each every 48 h, and 4 final 90 μM administrations every 72 h. […]

[2] = test system: human tumor cell lines (A549, A375, PC-3, U87)
human tumor cells = test: Cytotoxic activity screening of peptide library on human tumor cell lines, SRB method; type: cell-based
Procedure: (§1) Negative control cells were cultured on a volume of vehicle equal to that of the experimental samples. An “x-y” curve (dose-response) was established with the percent of surviving cells, compared in respect to the negative control cells, and the following parameters were estimated: 50% growth inhibition (GI50); Total growth inhibition (TGI); and the lethal concentration 50 (LC50), that is the concentration causing the 50% of cell death (Boyd M R, Paull K D, and Rubinstein L R (1992) “Data display and analysis strategies for the NCI Disease Oriented In-Vitro Antitumor Drug Screen, in Cytotoxic Anticancer Drugs: Models and Concept for Drug Discovery and Development” (Baleriote F A, Corbett T H and Baker L H eds) pp 11-34, Kluwer Academia Publishers, Boston).
(§2) Were considered as cytotoxic peptides all those peptides being able of inhibiting 50% of the cellular proliferation, in a dose-dependent manner, and showing GI50 values below 100 μM, at least in one of the cell lines studied. The human tumor cell lines used were: HEp-2 (larynx carcinoma), A549 (lung epithelial adenocarcinoma), M14 (melanoma), Colo 205 (colon adenocarcinoma), Ls174T (colon adenocarcinoma), LnCAP (prostate carcinoma), PC-3 (prostate carcinoma) and H 125 (non-small cell lung adenocarcinoma). Represented are primary sequences for the designed peptides, the code used for its generation and their respective cytotoxic capacity on human tumor cells.

M14 (melanoma) = test: SRB cytotoxicity on M14 melanoma cells; type: cell-based; settings: M14 human melanoma cells
Procedure: as §1, §2
The inability of peptide N06P89 (cyclized by two cysteins located at both N- and C-termini) to inhibit cellular proliferation in M14 human melanoma tumor cells is shown in FIG. 7. […] At the same FIG. 7, it is also shown the need for blocking the C-terminus (for example, an amide group or other modification) to achieve the cytotoxic capacity expected for the peptide region of interest.

[3] = test system: Colo 205 (colon adenocarcinoma); test: SRB cytotoxicity on Colo 205 cells; type: cell-based, human
Procedure: as §1
as §2, with “Represented are primary sequences for the designed peptides, the code used for its generation and their respective cytotoxic capacity on human tumor cells.” left out

[4] = test system: A549 (lung epithelial adenocarcinoma); test: SRB cytotoxicity on A549 cells; type: cell-based, human
Procedure: as §1
as §2, with “Represented are primary sequences for the designed peptides, the code used for its generation and their respective cytotoxic capacity on human tumor cells.” left out

[5] = test system: Ls174T (colon adenocarcinoma); test: SRB cytotoxicity on Ls174T cells; type: cell-based, human
Procedure: as §1
as §2, with “Represented are primary sequences for the designed peptides, the code used for its generation and their respective cytotoxic capacity on human tumor cells.” left out

HEp-2 (larynx carcinoma) = test: SRB cytotoxicity on HEp-2 cells; type: cell-based, human
Procedure: as §1
as §2, with “Represented are primary sequences for the designed peptides, the code used for its generation and their respective cytotoxic capacity on human tumor cells.” left out

[6] = peptide combined with prodigiosin

| Structure (SMILES) | survival (TC-1 tumor) | T/C values related to the mean tumor volume [1] [%] | GI50 values [2, 6] | cytotoxic activity / inhibition of cellular proliferation (M14 (melanoma)) | effect on the cytotoxic activity of prodigiosin [2, 6] | decrease of the cytotoxic activity of prodigiosin on primary fibroblasts (primary fibroblasts; [6]) | other results |
| --- | --- | --- | --- | --- | --- | --- | --- |
| CC(C)C[C@@H]1NC(=O)[C@H](Cc2ccccc2)NC(=O)[C@H](CC(=O)O)NC(=O)[C@H](CCCNC(=N)N)NC(=O)CNC(=O)[C@H]([C@@H](C)O)NC(=O)[C@H](CC(N)=O)NC(=O)[C@@H](N)CSSC[C@@H](C(N)=O)NC1=O [Peptide A08P25s-s, CNTGRDFLC] (H-CNTGRDFLC-NH2; disulfide 1-9) | intermediate survival block | 35 | nm range | – | – | – | effect on the cytotoxic activity of prodigiosin [2]: enhanced; decrease of the cytotoxic activity of prodigiosin on primary fibroblasts (primary fibroblasts): at least one order of magnitude |
| CC[C@H](C)[C@H](NC(=O)[C@H](CC(N)=O)NC(=O)[C@@H](NC(=O)[C@H](CO)NC(=O)[C@H](CC(C)C)NC(=O)[C@H](CC(=O)O)NC(=O)[C@@H](NC(=O)[C@@H](NC(=O)[C@H](CC(N)=O)NC(=O)[C@H](CO)NC(=O)[C@H](CO)NC(=O)[C@H](C)NC(=O)[C@@H](N)CC(N)=O)C(C)C)[C@@H](C)O)C(C)C)C(=O)NCC(=O)NCC(=O)N[C@@H](Cc1c[nH]cn1)C(=O)N[C@@H](CCC(N)=O)C(=O)N[C@@H](C)C(=O)N1CCC[C@H]1C(=O)N[C@@H](CC(=O)O)C(N)=O [Peptide E02P04] (H-NASSNVTDLSVNIGGHQAPD-NH2) | – | – | – | showed activity | – | – | Cytotoxic activity in vitro (human tumor cells; SRB method, cytotoxic = dose-dependent 50% inhibition of proliferation, GI50 below 100 μM in at least one cell line): + (Symbol + indicates the presence of cytotoxicity); cytotoxic activity / inhibition of cellular proliferation (M14 (melanoma); listed as E07P04): showed cytotoxic activity |
| CC(C)[C@H](NC(=O)[C@@H](NC(=O)[C@H](CC(=O)O)NC(=O)CN)[C@@H](C)O)C(=O)N[C@H]1CSSC[C@@H](C(=O)N[C@@H](CO)C(=O)N[C@H](C(=O)N[C@H](C(=O)N[C@@H](CO)C(N)=O)[C@@H](C)O)[C@@H](C)O)NC(=O)[C@H](Cc2ccccc2)NC(=O)[C@H](CC(=O)O)NC(=O)[C@H](CCCNC(=N)N)NC(=O)CNC(=O)[C@H]([C@@H](C)O)NC(=O)[C@H](CC(N)=O)NC(=O)[C@H](CO)NC(=O)[C@H](CC(N)=O)NC(=O)[C@H](Cc2ccccc2)NC(=O)CNC1=O [Peptide J08P46s-s] (H-GDTVCGFNSNTGRDFCSTTS-NH2; disulfide 5-16) | intermediate survival block | – | nm range | – | enhanced | at least one order of magnitude | – |
| CC(C)C[C@@H]1NC(=O)[C@H](Cc2ccccc2)NC(=O)[C@H](CC(=O)O)NC(=O)[C@H](CCCNC(=N)N)NC(=O)CNC(=O)[C@H]([C@@H](C)O)NC(=O)[C@H](CC(N)=O)NC(=O)[C@H](CO)NC(=O)[C@H](CC(N)=O)NC(=O)[C@@H](NC(=O)CNC(=O)[C@H](Cc2ccc(O)cc2)NC(=O)[C@@H](NC(=O)[C@@H](NC(=O)[C@H](CC(=O)O)NC(=O)CN)[C@@H](C)O)C(C)C)CSSC[C@@H](C(N)=O)NC(=O)CNC(=O)[C@H]([C@@H](C)O)NC(=O)[C@H](CO)NC1=O [Peptide J08P48s-s] (H-GDTVYGCNSNTGRDFLSTGC-NH2; disulfide 7-20) | highest survival block | 35 | nm range | – | enhanced | at least one order of magnitude | survival by intratumoral and intraperitoneal routes (TC-1 tumor; i.t. or i.p., FIG. 17): reproduce the effects observed in this model for the CIGB370r polypeptide |
| CC(C)C[C@H](NC(=O)[C@H](Cc1ccccc1)NC(=O)[C@H](CC(=O)O)NC(=O)[C@H](CCCNC(=N)N)NC(=O)CNC(=O)[C@@H](NC(=O)[C@H](CC(N)=O)NC(=O)[C@H](CO)NC(=O)[C@H](CC(N)=O)NC(=O)[C@H](Cc1ccccc1)NC(=O)CNC(=O)[C@H](Cc1ccc(O)cc1)NC(=O)[C@@H](NC(=O)[C@@H](NC(=O)[C@H](CC(=O)O)NC(=O)CN)[C@@H](C)O)C(C)C)[C@@H](C)O)C(=O)N[C@@H](CO)C(=O)N[C@H](C(=O)N[C@H](C(=O)N[C@@H](CO)C(N)=O)[C@@H](C)O)[C@@H](C)O [Peptide N06P87] (H-GDTVYGFNSNTGRDFLSTTS-NH2) | – | – | – | – | – | – | GI50 [3]: < 100 µM; cytotoxic / biological activity in vitro on tumor cells (human tumor cells; peptide library screening): active; change of cytotoxic activity by parenteral formulation buffers, pH and additives (human tumor cells; tumor cells from diverse histological origins): no increased on its cytotoxic activity; GI50 [4]: < 100 µM; GI50 [5]: < 100 µM; GI50 (HEp-2 (larynx carcinoma)): < 100 µM |
| CC(C)C[C@@H]1NC(=O)[C@H](Cc2ccccc2)NC(=O)[C@H](CC(=O)O)NC(=O)[C@H](CCCNC(=N)N)NC(=O)CNC(=O)[C@H]([C@@H](C)O)NC(=O)[C@H](CC(N)=O)NC(=O)[C@H](CO)NC(=O)[C@H](CC(N)=O)NC(=O)[C@H](Cc2ccccc2)NC(=O)CNC(=O)[C@H](Cc2ccc(O)cc2)NC(=O)[C@H](C(C)C)NC(=O)[C@H]([C@@H](C)O)NC(=O)[C@H](CC(=O)O)NC(=O)CNC(=O)[C@@H](N)CSSC[C@@H](C(N)=O)NC(=O)[C@H](CO)NC(=O)[C@H]([C@@H](C)O)NC(=O)[C@H]([C@@H](C)O)NC(=O)[C@H](CO)NC1=O [Peptide N06P89] (H-CGDTVYGFNSNTGRDFLSTTSC-NH2; disulfide 1-22) | – | – | – | inability; also recorded: loss of peptide's biological activity | – | – | – |

Reference: patent publication US9375459B2, “Cyclic peptides with an anti-neoplasic and anti-angiogenic activity” (priority 2011, dated 2016)
